≈ marks a conversion by molar mass, not a printed value.
system: Mycobacterium tuberculosis; assay: Antitubercular activity against Mycobacterium tuberculosis; assay type: functional

`CN1C/C(=C\c2ccc(Br)cc2)C(=O)[C@]2(C1)[C@H](c1ccc(Br)cc1)[C@@H]1CSCN1[C@@]21C(=O)Nc2ccccc21` and `CN1C/C(=C\c2ccc(Br)cc2)C(=O)[C@]2(C1)[C@H](c1ccc(Br)cc1)[C@@H]1CSCN1[C@@]21C(=O)Nc2ccc(Cl)cc21` are within 1.5-fold of each other in MIC: 4.7 µM (≈ 3.13 µg/mL) for the first, 4.4 µM (≈ 3.08 µg/mL) for the second.

Going from `CN1C/C(=C\c2ccccc2)C(=O)[C@]2(C1)[C@H](c1ccccc1)[C@@H]1CSCN1[C@@]21C(=O)Nc2ccccc21` to `CN1C/C(=C\c2ccccc2)C(=O)[C@]2(C1)[C@H](c1ccccc1)[C@@H]1CSCN1[C@@]21C(=O)Nc2ccc(Cl)cc21`, the MIC falls from 49.2 µM (≈ 25 µg/mL) to 23.1 µM (≈ 12.5 µg/mL) (2.1-fold).

`CC(C)c1ccc(/C=C2\CN(C)C[C@@]3(C2=O)[C@H](c2ccc(C(C)C)cc2)[C@@H]2CSCN2[C@@]32C(=O)Nc3ccccc32)cc1` and `CC(C)c1ccc(/C=C2\CN(C)C[C@@]3(C2=O)[C@H](c2ccc(C(C)C)cc2)[C@@H]2CSCN2[C@@]32C(=O)Nc3ccc(Cl)cc32)cc1` are within 1.5-fold of each other in MIC: 10.6 µM (≈ 6.27 µg/mL) for the first, 10.1 µM (≈ 6.33 µg/mL) for the second.

`COc1ccccc1/C=C1\CN(C)C[C@@]2(C1=O)[C@H](c1ccccc1OC)[C@@H]1CSCN1[C@@]21C(=O)Nc2ccccc21` and `COc1ccccc1/C=C1\CN(C)C[C@@]2(C1=O)[C@H](c1ccccc1OC)[C@@H]1CSCN1[C@@]21C(=O)Nc2ccc(Cl)cc21` are within 1.5-fold of each other in MIC: 22 µM (≈ 12.5 µg/mL) for the first, 20.8 µM (≈ 12.5 µg/mL) for the second.

`COc1ccc(/C=C2\CN(C)C[C@@]3(C2=O)[C@H](c2ccc(OC)cc2OC)[C@@H]2CSCN2[C@@]32C(=O)Nc3ccccc32)c(OC)c1` and `COc1ccc(/C=C2\CN(C)C[C@@]3(C2=O)[C@H](c2ccc(OC)cc2OC)[C@@H]2CSCN2[C@@]32C(=O)Nc3ccc(Cl)cc32)c(OC)c1` are within 1.5-fold of each other in MIC: 19.9 µM (≈ 12.5 µg/mL) for the first, 18.9 µM (≈ 12.5 µg/mL) for the second.

First: CN1C/C(=C\c2ccc(Cl)cc2Cl)C(=O)[C@]2(C1)[C@H](c1ccc(Cl)cc1Cl)[C@@H]1CSCN1[C@@]21C(=O)Nc2ccc(Cl)cc21
Second: CN1C/C(=C\c2ccc(Cl)cc2Cl)C(=O)[C@]2(C1)[C@H](c1ccc(Cl)cc1Cl)[C@@H]1CSCN1[C@@]21C(=O)Nc2ccc([N+](=O)[O-])cc21
The MIC of the first is 2-fold higher: 1.2 µM (≈ 0.816 µg/mL) for the first, 0.6 µM (≈ 0.414 µg/mL) for the second.

Going from `Cc1ccc(/C=C2\CN(C)C[C@@]3(C2=O)[C@H](c2ccc(C)cc2)[C@@H]2CSCN2[C@@]32C(=O)Nc3ccc([N+](=O)[O-])cc32)cc1` to `Cc1ccc(/C=C2\CN(C)C[C@@]3(C2=O)[C@H](c2ccc(C)cc2)[C@@H]2CSCN2[C@@]32C(=O)Nc3ccc(Cl)cc32)cc1`, the MIC rises from 5.3 µM (≈ 3.08 µg/mL) to 11 µM (≈ 6.27 µg/mL) (2.1-fold).

First: COc1ccc(/C=C2\CN(C)C[C@@]3(C2=O)[C@H](c2ccc(OC)cc2OC)[C@@H]2CSCN2[C@@]32C(=O)Nc3ccc([N+](=O)[O-])cc32)c(OC)c1
Second: COc1ccccc1/C=C1\CN(C)C[C@@]2(C1=O)[C@H](c1ccccc1OC)[C@@H]1CSCN1[C@@]21C(=O)Nc2ccc([N+](=O)[O-])cc21
The MIC of the first is 1.8-fold higher: 9.4 µM (≈ 6.32 µg/mL) for the first, 5.1 µM (≈ 3.12 µg/mL) for the second.

Going from `CN1C/C(=C\c2ccccc2Cl)C(=O)[C@]2(C1)[C@H](c1ccccc1Cl)[C@@H]1CSCN1[C@@]21C(=O)Nc2ccccc21` to `CN1C/C(=C\c2ccccc2Cl)C(=O)[C@]2(C1)[C@H](c1ccccc1Cl)[C@@H]1CSCN1[C@@]21C(=O)Nc2ccc(Cl)cc21`, the MIC falls from 10.9 µM (≈ 6.28 µg/mL) to 5.1 µM (≈ 3.12 µg/mL) (2.1-fold).

Going from `CN1C/C(=C\c2ccc(F)cc2)C(=O)[C@]2(C1)[C@H](c1ccc(F)cc1)[C@@H]1CSCN1[C@@]21C(=O)Nc2ccccc21` to `CN1C/C(=C\c2ccc(F)cc2)C(=O)[C@]2(C1)[C@H](c1ccc(F)cc1)[C@@H]1CSCN1[C@@]21C(=O)Nc2ccc(Cl)cc21`, the MIC falls from 5.7 µM (≈ 3.1 µg/mL) to 2.8 µM (≈ 1.62 µg/mL) (2-fold).

Going from `Cc1ccccc1/C=C1\CN(C)C[C@@]2(C1=O)[C@H](c1ccccc1C)[C@@H]1CSCN1[C@@]21C(=O)Nc2ccccc21` to `Cc1ccccc1/C=C1\CN(C)C[C@@]2(C1=O)[C@H](c1ccccc1C)[C@@H]1CSCN1[C@@]21C(=O)Nc2ccc(Cl)cc21`, the MIC falls from 23.3 µM (≈ 12.5 µg/mL) to 11 µM (≈ 6.27 µg/mL) (2.1-fold).

Compared with `Cc1ccc(/C=C2\CN(C)C[C@@]3(C2=O)[C@H](c2ccc(C)cc2)[C@@H]2CSCN2[C@@]32C(=O)Nc3ccccc32)cc1`, `CN1C/C(=C\c2ccc(Cl)cc2)C(=O)[C@]2(C1)[C@H](c1ccc(Cl)cc1)[C@@H]1CSCN1[C@@]21C(=O)Nc2ccccc21` is 4.3-fold lower in MIC: 23.3 µM (≈ 12.5 µg/mL) for the first, 5.4 µM (≈ 3.11 µg/mL) for the second.

Compared with `CN1C/C(=C\c2ccccc2-c2cccs2)C(=O)[C@]2(C1)[C@H](c1ccccc1-c1cccs1)[C@@H]1CSCN1[C@@]21C(=O)Nc2ccc(Cl)cc21`, `CN1C/C(=C\c2ccccc2-c2cccs2)C(=O)[C@]2(C1)[C@H](c1ccccc1-c1cccs1)[C@@H]1CSCN1[C@@]21C(=O)Nc2ccc([N+](=O)[O-])cc21` is 2.1-fold lower in MIC: 11.4 µM (≈ 8.05 µg/mL) for the first, 5.5 µM (≈ 3.94 µg/mL) for the second.

Compared with `CN1C/C(=C\c2ccccc2)C(=O)[C@]2(C1)[C@H](c1ccccc1)[C@@H]1CSCN1[C@@]21C(=O)Nc2ccc([N+](=O)[O-])cc21`, `CN1C/C(=C\c2ccccc2Cl)C(=O)[C@]2(C1)[C@H](c1ccccc1Cl)[C@@H]1CSCN1[C@@]21C(=O)Nc2ccc([N+](=O)[O-])cc21` is 2.2-fold lower in MIC: 5.6 µM (≈ 3.09 µg/mL) for the first, 2.6 µM (≈ 1.62 µg/mL) for the second.

First: CN1C/C(=C\c2ccc(Cl)cc2)C(=O)[C@]2(C1)[C@H](c1ccc(Cl)cc1)[C@@H]1CSCN1[C@@]21C(=O)Nc2ccc([N+](=O)[O-])cc21
Second: CN1C/C(=C\c2ccc(Cl)cc2)C(=O)[C@]2(C1)[C@H](c1ccc(Cl)cc1)[C@@H]1CSCN1[C@@]21C(=O)Nc2ccc(Cl)cc21
The MIC of the first is 3.9-fold lower: 1.3 µM (≈ 0.808 µg/mL) for the first, 5.1 µM (≈ 3.12 µg/mL) for the second.

Compared with `COc1ccc(/C=C2\CN(C)C[C@@]3(C2=O)[C@H](c2ccc(OC)cc2)[C@@H]2CSCN2[C@@]32C(=O)Nc3ccc([N+](=O)[O-])cc32)cc1`, `COc1ccc(/C=C2\CN(C)C[C@@]3(C2=O)[C@H](c2ccc(OC)cc2)[C@@H]2CSCN2[C@@]32C(=O)Nc3ccc(Cl)cc32)cc1` is 2-fold higher in MIC: 10.3 µM (≈ 6.31 µg/mL) for the first, 20.8 µM (≈ 12.5 µg/mL) for the second.

`CN1C/C(=C\c2ccc(F)cc2)C(=O)[C@]2(C1)[C@H](c1ccc(F)cc1)[C@@H]1CSCN1[C@@]21C(=O)Nc2ccc([N+](=O)[O-])cc21` and `CN1C/C(=C\c2ccc(Br)cc2)C(=O)[C@]2(C1)[C@H](c1ccc(Br)cc1)[C@@H]1CSCN1[C@@]21C(=O)Nc2ccc([N+](=O)[O-])cc21` are within 1.5-fold of each other in MIC: 1.4 µM (≈ 0.824 µg/mL) for the first, 1.1 µM (≈ 0.781 µg/mL) for the second.

`CN1C/C(=C\c2ccc(Cl)cc2Cl)C(=O)[C@]2(C1)[C@H](c1ccc(Cl)cc1Cl)[C@@H]1CSCN1[C@@]21C(=O)Nc2ccccc21` and `Cc1ccccc1/C=C1\CN(C)C[C@@]2(C1=O)[C@H](c1ccccc1C)[C@@H]1CSCN1[C@@]21C(=O)Nc2ccc([N+](=O)[O-])cc21` are within 1.5-fold of each other in MIC: 4.7 µM (≈ 3.03 µg/mL) for the first, 5.3 µM (≈ 3.08 µg/mL) for the second.

First: CN1C/C(=C\c2ccccc2-c2cccs2)C(=O)[C@]2(C1)[C@H](c1ccccc1-c1cccs1)[C@@H]1CSCN1[C@@]21C(=O)Nc2ccccc21
Second: COc1ccc(/C=C2\CN(C)C[C@@]3(C2=O)[C@H](c2ccc(OC)cc2)[C@@H]2CSCN2[C@@]32C(=O)Nc3ccccc32)cc1
The MIC of the first is 1.8-fold lower: 12.1 µM (≈ 8.13 µg/mL) for the first, 22 µM (≈ 12.5 µg/mL) for the second.

Compared with `CC[C@@H](CO)NCCN[C@@H](CC)CO` [ETHAMBUTOL], `NNC(=O)c1ccncc1` [ISONIAZID] is 19-fold lower in MIC: 7.6 µM (≈ 1.55 µg/mL) for the first, 0.4 µM (≈ 0.0549 µg/mL) for the second.

Compared with `NC(=O)c1cnccn1` [PYRAZINAMIDE], `CO[C@H]1/C=C/O[C@@]2(C)Oc3c(C)c(O)c4c(O)c(c(/C=N/N5CCN(C)CC5)c(O)c4c3C2=O)NC(=O)/C(C)=C\C=C\[C@H](C)[C@H](O)[C@@H](C)[C@@H](O)[C@@H](C)[C@H](OC(C)=O)[C@@H]1C` [RIFAMPIN] is 510-fold lower in MIC: 50.8 µM (≈ 6.25 µg/mL) for the first, 0.1 µM (≈ 0.0823 µg/mL) for the second.
